# Assays:
# E3 (CUL1) = E3 (CUL1) (Homo sapiens (Human), UniProt Q13616); assay: E3 (CUL1) inhibition (Table 1); assay type: biochemical
# Experimental: The reaction mixture (15 μl) was assembled onto a 384-well microtiter plate. […] ATP (0.66 mM) was then added to the mix followed by a brief centrifugation to settle down the mixture. The resulting plate was incubated at 30° C. in the Synergy-H1 reader and the fluorescence signal was monitored. Ubiquitination was quantified based on the ratio of acceptor:donor fluorescence (excitation 515 nm; donor emission 570 nm, acceptor emission 670 nm).
# E3 (CUL4) = E3 (CUL4) (Homo sapiens (Human), UniProt Q13619); assay: E3 (CUL4) inhibition (Table 1); assay type: biochemical
# Experimental: (§1) The reaction was incubated for 5 min at 37° C. […] The reaction was incubated for 5 min at room temperature. In the second step (chase), the completed Cdc34b-Ub thiol ester reaction mixture was combined with one third of the completed mono-ubiquitination mixture. The final volume was adjusted to 10 μl with a mix that contained 50 mM Tris-HCl (pH 7.4), 0.5 mM DTT, 0.1 mg/ml of BSA, 5 mM MgCl2, and 2 mM ATP. Compounds were added where indicated. The chase reaction was incubated for 10 min at 37° C. The reaction products were separated by 4-20% SDS-polyacrylamide gel electrophoresis. The reaction scheme was identical to the one described above for FIGS. 12A-B. […] The reaction products, separated by SDS-PAGE, were visualized and analyzed by phospho-imaging using Typhoon 9500 scanner.
# ROC1-CUL4A = ROC1-CUL4A (Homo sapiens (Human), UniProt Q13619); assay: 32P-Ub chain elongation by ROC1-CUL4A; assay type: biochemical; parameters: concentration or dose not given beside the values; settings: relative to KH-4-43
# Experimental: as §1
# ROC1-CUL4A (full length) = ROC1-CUL4A (full length) (Homo sapiens (Human), UniProt Q13619); assay: Ligand binding by MST
# Experimental: (§2) E3 ligase complex (˜2 nmol) was labeled with fluorescent dye using Monolith NT Protein Labeling Kit Red-NHS (Nanotemper) in the presence of 20 mM MES pH 6.0 and 150 mM NaCl. Excess dye was removed using the included gravity flow column and eluted in storage buffer containing 20 mM Tris-HCl, pH 7.4, 150 mM NaCl, and 10% glycerol. The fluorescent E3 complex (˜0.01-0.06 μM) was mixed with increasing amount of compound in a buffer (20 μl) that contains phosphate-buffered saline, 0.1% TWEEN-20 and 2% prionex. Following incubation at room temperature for 30 min, the reaction mixture loaded into premium coated capillaries and analyzed in the Monolith NT.115 machine (Nanotemper). Thermophoresis was recorded for each sample and binding curve was generated and Kd was calculated using the included software. For reactions where significant ligand specific fluorescence quenching occurred (verified by manufacturer's SDS Denaturation-test protocol), the initial fluorescence quenching data was used directly to calculate the binding curve and Kd.
# cancer cells = assay: Apoptosis, Annexin V flow cytometry; assay type: cell-based; settings: for induction of apoptosis: at 30 μM
# Experimental: Cells (5×10^4) were seeded 24 hours before compound treatment. Compound was added to the culture media and cells were cultured with the compound for 48 hours. The treated cells were then transferred into 5 ml flow cytometry tubes and the well was washed once with PBS to collect any remaining cells. The cells were then pelleted at 500×g for 5 min with a Beckman CS-6KR centrifuge at 4° C. After removal of supernatant, the cells pellet was washed with Annexin V binding buffer (10 mM Hepes-NaOH, pH 7.4, 150 mM NaCl, 5 mM KCl, 1 mM MgCl2, and 1.8 mM CaCl2). Cells were pelleted once again and incubated in the dark with Annexin V-FITC (2 μg/ml) in binding buffer for 5 min then analyzed using LSRFortessa flow cytometer (BD).
# ROC1-CUL1 CTD [1] = target: T1, ROC1-CUL1 CTD (Homo sapiens (Human), UniProt Q13616); assay: Ligand binding by MST; settings: Table 5, MST; read-out: E3 binding Kd
# Experimental: as §2
# E3 CRL4^CRBN = E3 CRL4^CRBN (Homo sapiens (Human), UniProt Q13619); assay: Lenalidomide-dependent ubiquitination of CK1α by CRL4^CRBN; assay type: biochemical; settings: at 30 μM
# Experimental: To prepare Flag-CK1α as a substrate for ubiquitination experiments described in FIGS. 2A-E, the expression vector (purchased from Addgene) was introduced to HEK-293T cells by transfection using Lipofectamine RNAIMAX (ThermoFisher) according to manufacturer's protocols. Cell extracts were prepared and the concentration of Flag-CK1α was determined using immunoblot analysis with purified GST-CK1α (Sigma) as a standard. Typically, 50-100 μl of extracts was used to attach to ˜15 μl of M2 beads (Sigma) at 4° C. for 2 hours. Unbound materials were removed by washing (first three times with a washing buffer containing 50 mM Tris-HCl, pH8.0, 1% Triton X-100, 0.5M NaCl, and then twice with buffer A plus 50 mM NaCl) and the resulting beads were used in the ubiquitination assay (15 μl). The concentration of Flag-CK1α was determined to be ˜100 nM.
# Immobilized, Flag-CK1α-containing beads were initially incubated with a reaction mixture (10 μl) containing 50 mM Tris-HCl (pH7.4), 0.5 mM DTT, 0.1 mg/ml of BSA, 5 mM MgCl2, 100 nM CRL4^CRBN, 1 μM Lenalidomide (Selleckchem), 1 μM Fluorescein-Ub, 100 nM E1, and 1 μM UbcH5c. ATP (20 mM) was added last to initiate the reaction. The reaction was incubated on a thermomixer (1,300 rpm; Eppendorf) at 37° C. for 5 min. The resulting beads were then added with a second reaction mixture (5 μl) containing 50 mM Tris-HCl (pH7.4), 0.5 mM DTT, 0.1 mg/ml of BSA, 5 mM MgCl2, 4 μM I-Ub-Q31C/K48R, and 1 μM Cdc34b, in the presence or absence of E3 inhibitors as specified. The reaction was incubated on a thermomixer at 37° C. for times as indicated. The concentrations of enzymes, Ubs, and compounds stated above were adjusted based on a final volume of 15 μl. The beads were then washed using conditions as described above. Materials eluted from the beads were separated by 4-20% SDS-PAGE followed by detection with fluorescence scanning (Typhoon 9500) or immunoblot using anti-CK1α antibody (Abcam). […]
# ROC1-CUL1 = ROC1-CUL1 (Homo sapiens (Human), UniProt Q13616); assay: Gel-based di-Ub synthesis; assay type: biochemical
# Experimental: For the experiment shown in FIG. 7 and FIGS. 8A-B, the di-Ub synthesis reaction was carried out by preassembling the donor Ub mix. The donor Ub mixture (5 μl) contained 50 mM Tris HCl (pH 7.4), 5 mM MgCl2, 2 mM ATP, 0.5 mM DTT, 0.1 mg/mL BSA, 1 μM Ub-NC-I555, 0.1 μM E1, and 2 μM Cdc34b. The reaction was incubated for 5 min at 37° C. Compounds, in the amounts indicated, were added followed by the addition of ROC1-CUL1 (or related E3 subcomplex) in amounts as indicated and 10 μM PK-Ub (1-74) (as a receptor). The final volume was adjusted to 10 μl. The reaction was incubated for 10 min at 37° C.
# For the experiments shown in FIG. 8C and FIG. 9, the reaction was assembled in a 10-μl mixture containing 50 mM Tris HCl (pH 7.4), 5 mM MgCl2, 0.5 mM DTT, 0.1 mg/mL BSA, 0.05 μM Ub-NC-I555, 2,5 μM PK-Ub (1-74), 0.1 μM E1, 1 μM Cdc34b, and 80 nM ROC1-CUL1 with or without compound. The reaction was initiated by the addition of 2 mM ATP. The products were separated by 4-20% SDS/PAGE and were visualized and quantified on a Typhoon FLA 9500 laser scanner (GE).
# ROC1-CUL1 CTD [2] = target: T1, ROC1-CUL1 CTD; assay: FRET K48 di-Ub synthesis assay; assay type: biochemical; settings: HTS screening conditions, read-out: inhibition of the reaction
# ROC1-CUL4A (full length), sequence (Q13619 39-759): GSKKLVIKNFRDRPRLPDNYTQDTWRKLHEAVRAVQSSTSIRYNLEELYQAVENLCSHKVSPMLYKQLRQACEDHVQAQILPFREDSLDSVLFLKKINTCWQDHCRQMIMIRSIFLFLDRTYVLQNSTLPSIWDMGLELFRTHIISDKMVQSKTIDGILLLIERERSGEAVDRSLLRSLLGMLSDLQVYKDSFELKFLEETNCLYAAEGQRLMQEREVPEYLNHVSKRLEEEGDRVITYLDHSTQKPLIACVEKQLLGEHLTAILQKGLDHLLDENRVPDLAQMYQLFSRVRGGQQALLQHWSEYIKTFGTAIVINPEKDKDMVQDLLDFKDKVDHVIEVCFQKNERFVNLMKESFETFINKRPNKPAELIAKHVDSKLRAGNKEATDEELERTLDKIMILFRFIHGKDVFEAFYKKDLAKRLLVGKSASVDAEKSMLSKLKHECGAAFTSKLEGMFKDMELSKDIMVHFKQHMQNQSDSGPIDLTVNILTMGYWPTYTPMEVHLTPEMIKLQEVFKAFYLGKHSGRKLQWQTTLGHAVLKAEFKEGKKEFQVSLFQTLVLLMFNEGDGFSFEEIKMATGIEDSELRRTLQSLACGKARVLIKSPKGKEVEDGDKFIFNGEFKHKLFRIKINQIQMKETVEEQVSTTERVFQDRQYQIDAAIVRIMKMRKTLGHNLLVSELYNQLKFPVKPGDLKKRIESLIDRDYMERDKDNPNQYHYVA
# ROC1-CUL4A (full length), sequence (P62877 15-108 partner): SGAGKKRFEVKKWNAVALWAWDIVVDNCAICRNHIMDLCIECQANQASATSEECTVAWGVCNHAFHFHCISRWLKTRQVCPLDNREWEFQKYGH
# T1 sequence (Q13616 411-776): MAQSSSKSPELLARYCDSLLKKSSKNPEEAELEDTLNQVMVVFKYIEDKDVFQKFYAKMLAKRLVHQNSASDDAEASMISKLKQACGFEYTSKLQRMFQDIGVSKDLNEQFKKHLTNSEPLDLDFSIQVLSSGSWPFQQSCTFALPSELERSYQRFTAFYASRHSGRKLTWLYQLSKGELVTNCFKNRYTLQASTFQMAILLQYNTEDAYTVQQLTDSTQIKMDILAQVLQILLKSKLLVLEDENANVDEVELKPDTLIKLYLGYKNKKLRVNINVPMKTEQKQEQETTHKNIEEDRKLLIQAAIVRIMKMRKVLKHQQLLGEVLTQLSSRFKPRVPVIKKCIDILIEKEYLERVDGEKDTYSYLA
# T1 sequence (P62877 whole entry partner): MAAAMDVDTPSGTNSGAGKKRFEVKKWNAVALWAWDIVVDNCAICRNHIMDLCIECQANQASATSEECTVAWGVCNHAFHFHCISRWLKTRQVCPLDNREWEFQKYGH
# E3 (CUL4), sequence (Q13619 whole entry): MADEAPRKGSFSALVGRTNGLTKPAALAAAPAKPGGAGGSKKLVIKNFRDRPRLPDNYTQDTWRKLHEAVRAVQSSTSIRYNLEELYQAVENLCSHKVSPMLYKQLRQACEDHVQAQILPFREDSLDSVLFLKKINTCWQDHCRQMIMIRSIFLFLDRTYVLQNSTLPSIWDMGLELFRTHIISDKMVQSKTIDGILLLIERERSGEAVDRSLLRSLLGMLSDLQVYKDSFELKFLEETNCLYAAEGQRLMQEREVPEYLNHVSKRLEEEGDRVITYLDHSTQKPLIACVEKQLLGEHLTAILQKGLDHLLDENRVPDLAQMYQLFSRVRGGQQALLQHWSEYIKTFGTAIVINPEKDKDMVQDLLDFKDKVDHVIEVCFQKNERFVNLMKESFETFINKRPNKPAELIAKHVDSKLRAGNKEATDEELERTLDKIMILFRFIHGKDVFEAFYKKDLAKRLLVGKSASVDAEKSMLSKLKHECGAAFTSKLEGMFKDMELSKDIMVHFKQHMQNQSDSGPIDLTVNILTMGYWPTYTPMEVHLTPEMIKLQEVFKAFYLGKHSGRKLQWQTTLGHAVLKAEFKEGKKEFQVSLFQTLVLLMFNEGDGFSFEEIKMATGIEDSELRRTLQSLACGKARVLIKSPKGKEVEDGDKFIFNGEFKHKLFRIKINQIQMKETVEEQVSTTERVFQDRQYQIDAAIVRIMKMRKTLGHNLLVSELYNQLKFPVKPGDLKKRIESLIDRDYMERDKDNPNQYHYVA
# E3 (CUL4), sequence (P62877 whole entry partner): as the sequence (P62877 whole entry partner) above
# ROC1-CUL4A, sequence (Q13619 39-759): as the sequence (Q13619 39-759) above
# ROC1-CUL4A, sequence (P62877 15-108 partner): as the sequence (P62877 15-108 partner) above
# ROC1-CUL1, sequence (Q13616 whole entry): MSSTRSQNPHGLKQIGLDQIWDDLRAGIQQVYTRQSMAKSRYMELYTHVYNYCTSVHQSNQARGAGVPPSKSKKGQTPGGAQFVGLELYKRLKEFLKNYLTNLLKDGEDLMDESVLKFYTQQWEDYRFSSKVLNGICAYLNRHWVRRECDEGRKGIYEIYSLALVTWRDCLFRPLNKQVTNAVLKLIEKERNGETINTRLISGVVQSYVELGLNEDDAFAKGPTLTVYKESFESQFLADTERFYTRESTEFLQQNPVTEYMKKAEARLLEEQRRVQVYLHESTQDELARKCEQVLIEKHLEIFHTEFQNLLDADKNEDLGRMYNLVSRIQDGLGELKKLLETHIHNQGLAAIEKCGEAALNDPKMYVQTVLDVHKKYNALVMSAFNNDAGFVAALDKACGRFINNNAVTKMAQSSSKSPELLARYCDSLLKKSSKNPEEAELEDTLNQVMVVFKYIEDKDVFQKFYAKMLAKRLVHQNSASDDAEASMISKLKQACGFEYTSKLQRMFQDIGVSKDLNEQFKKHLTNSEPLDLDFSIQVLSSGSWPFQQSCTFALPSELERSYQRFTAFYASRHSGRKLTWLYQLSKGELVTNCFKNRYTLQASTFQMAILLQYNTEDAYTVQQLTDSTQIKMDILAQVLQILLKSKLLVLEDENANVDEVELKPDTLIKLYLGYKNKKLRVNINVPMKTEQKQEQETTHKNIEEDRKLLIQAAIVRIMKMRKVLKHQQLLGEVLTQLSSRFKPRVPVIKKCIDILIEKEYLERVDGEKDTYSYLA
# ROC1-CUL1, sequence (P62877 whole entry partner): as the sequence (P62877 whole entry partner) above
# E3 (CUL1), sequence (Q13616 whole entry): as the sequence (Q13616 whole entry) above
# E3 (CUL1), sequence (P62877 whole entry partner): as the sequence (P62877 whole entry partner) above
# E3 CRL4^CRBN, sequence (Q13619 whole entry): as the sequence (Q13619 whole entry) above
# E3 CRL4^CRBN, sequence (P62877 whole entry partner): as the sequence (P62877 whole entry partner) above
# E3 CRL4^CRBN, sequence (Q16531 whole entry partner): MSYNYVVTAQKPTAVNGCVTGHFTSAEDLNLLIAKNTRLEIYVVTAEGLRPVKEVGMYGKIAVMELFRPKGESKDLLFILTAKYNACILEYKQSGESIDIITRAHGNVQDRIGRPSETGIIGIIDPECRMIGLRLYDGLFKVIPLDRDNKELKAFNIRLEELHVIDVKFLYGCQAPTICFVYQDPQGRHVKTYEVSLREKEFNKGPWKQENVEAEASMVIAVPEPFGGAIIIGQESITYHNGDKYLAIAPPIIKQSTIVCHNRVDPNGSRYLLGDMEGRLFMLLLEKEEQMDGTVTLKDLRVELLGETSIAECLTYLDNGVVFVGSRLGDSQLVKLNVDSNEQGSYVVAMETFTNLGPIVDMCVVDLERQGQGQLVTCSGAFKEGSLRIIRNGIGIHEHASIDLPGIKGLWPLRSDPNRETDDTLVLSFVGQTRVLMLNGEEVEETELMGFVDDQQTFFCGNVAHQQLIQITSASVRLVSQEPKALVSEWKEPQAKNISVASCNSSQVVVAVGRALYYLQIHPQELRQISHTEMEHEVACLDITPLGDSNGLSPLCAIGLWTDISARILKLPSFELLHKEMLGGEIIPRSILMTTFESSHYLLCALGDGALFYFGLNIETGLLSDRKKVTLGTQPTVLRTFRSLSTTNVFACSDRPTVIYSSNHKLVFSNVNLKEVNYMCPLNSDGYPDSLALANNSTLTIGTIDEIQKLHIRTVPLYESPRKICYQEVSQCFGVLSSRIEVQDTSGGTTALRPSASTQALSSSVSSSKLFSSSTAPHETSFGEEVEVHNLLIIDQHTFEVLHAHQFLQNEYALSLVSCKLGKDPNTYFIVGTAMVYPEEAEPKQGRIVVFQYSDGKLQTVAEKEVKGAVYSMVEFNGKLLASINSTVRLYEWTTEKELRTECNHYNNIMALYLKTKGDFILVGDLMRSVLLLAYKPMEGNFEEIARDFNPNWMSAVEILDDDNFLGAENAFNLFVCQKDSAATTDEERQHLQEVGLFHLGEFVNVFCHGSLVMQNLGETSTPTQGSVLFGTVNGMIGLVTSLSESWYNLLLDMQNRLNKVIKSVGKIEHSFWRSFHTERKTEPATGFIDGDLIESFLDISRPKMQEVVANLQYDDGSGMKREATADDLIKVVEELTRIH
# E3 CRL4^CRBN, sequence (Q96SW2 whole entry partner): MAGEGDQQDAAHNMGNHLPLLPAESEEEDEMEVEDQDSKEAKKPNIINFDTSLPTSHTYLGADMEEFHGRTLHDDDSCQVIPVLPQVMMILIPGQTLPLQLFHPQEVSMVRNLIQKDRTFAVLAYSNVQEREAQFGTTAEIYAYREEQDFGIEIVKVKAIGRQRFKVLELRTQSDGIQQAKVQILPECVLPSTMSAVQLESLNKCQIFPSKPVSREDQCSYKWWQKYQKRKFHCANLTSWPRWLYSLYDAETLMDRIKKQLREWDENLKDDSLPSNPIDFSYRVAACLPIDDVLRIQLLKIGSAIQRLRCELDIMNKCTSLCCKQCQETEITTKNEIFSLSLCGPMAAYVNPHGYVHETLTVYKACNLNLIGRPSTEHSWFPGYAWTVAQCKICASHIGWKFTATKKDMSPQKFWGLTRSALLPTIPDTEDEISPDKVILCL
Compound,E3 (CUL1) Inhibition EC50 (E3 (CUL1)),E3 (CUL4) Inhibition EC50 (E3 (CUL4)),E3 CRL4 Relative Inhibition (ROC1-CUL4A) [%],E3 binding ROC1-CUL4A Kd (ROC1-CUL4A (full length)),Apoptosis EC50 (cancer cells; Table 1),Apoptosis EC50 (cancer cells; Table 6),induction of apoptosis (cancer cells),Kd (ROC1-CUL1 CTD [1]) [nM],inhibition of ubiquitination of CK1α (E3 CRL4^CRBN),discharge of Cdc34-Ub and production of Ub2 by ROC1-CUL1 (ROC1-CUL1),inhibition at 0.8 µM (ROC1-CUL1 CTD [2]; 0.8 μM) [%],inhibition at 5 µM (ROC1-CUL1 CTD [2]; 5 μM) [%]
COc1ccc2c(=O)c(-c3cnn(-c4ccc(F)cc4)c3)c(C(F)(F)F)oc2c1OC [KH-3-141],Inactive,Inactive,0,No detectable binding,Inactive,Inactive,unable to induce any detectable level of apoptosis,,,,,
COc1c(O)ccc2c(=O)c(-c3cnn(-c4ccccc4)c3)c(C(F)(F)F)oc12 [KH-4-119],,Inactive,13,no detectable binding activity,Inactive,Inactive,unable to induce any detectable level of apoptosis,,,,,
"O=c1c(Oc2ccccc2)c(C(F)(F)F)oc2c(O)c(O)ccc12 [#33, 7,8-dihydroxy-3-phenoxy-2-(trifluoromethyl)-4H-chromen-4-one]",,,,,,,,1840,Significant inhibitory effects,showed inhibition,,
"Cc1ccc(C(=O)Nc2ccc(S(=O)(=O)O)c3cc(S(=O)(=O)O)cc(S(=O)(=O)O)c23)cc1NC(=O)c1cccc(NC(=O)Nc2cccc(C(=O)Nc3cc(C(=O)Nc4ccc(S(=O)(=O)O)c5cc(S(=O)(=O)O)cc(S(=O)(=O)O)c45)ccc3C)c2)c1 [Suramin, suramin]",,,,,,,,,,,50,100

# — patent US20240174649A1, “CULLIN-RING E3 UBIQUITIN LIGASE 4 INHIBITOR COMPOUNDS AND METHODS OF THEIR USE” (ICAHN SCHOOL OF MEDICINE AT MOUNT SINAI, priority 2021, published 2024)
